Paper PMC6691772, “Novel phthalimide based analogues: design, synthesis, biological evaluation, and molecular docking studies” (Journal of Enzyme Inhibition and Medicinal Chemistry, 2019)
In brackets after ≈: the same amount, converted by molar mass.

Legend:
S. pneumonia RCMB 010010 [1] = assay: Agar well diffusion, inhibition zone; assay type: cell-based, Streptococcus pneumoniae; set-up: key to Mean diameter of inhibition zone (Mean ± SEM): –: -: No activity under the screening conditions; details: mean of three values; for zone of inhibition at 1000 µg/mL: Streptococcus pneumoniae, RCMB010010, 1 mg/mL, read-out: Mean diameter of inhibition zone (Mean ± SEM)
B. subtilis RCMB 010067 [2] = assay: Agar well diffusion, inhibition zone; assay type: cell-based, Bacillus subtilis; set-up: key to Mean diameter of inhibition zone (Mean ± SEM): –: -: No activity under the screening conditions; details: mean of three values; for zone of inhibition at 1000 µg/mL: Bacillus subtilis, RCMB010067, 1 mg/mL, read-out: Mean diameter of inhibition zone (Mean ± SEM)
[3] = system: P. aeruginosa RCMB 010043; assay: Agar well diffusion, inhibition zone; assay type: cell-based, Pseudomonas aeruginosa; set-up: key to Mean diameter of inhibition zone (Mean ± SEM): –: -: No activity under the screening conditions; details: mean of three values; for zone of inhibition at 1000 µg/mL: Pseudomonas aeruginosa, RCMB010043, 1 mg/mL, read-out: Mean diameter of inhibition zone (Mean ± SEM); for Mean diameter of inhibition zone (Mean ± SEM): 1 mg/mL
E. coli RCMB 010052 [4] = assay: Agar well diffusion, inhibition zone; assay type: cell-based, Escherichia coli; set-up: key to Mean diameter of inhibition zone (Mean ± SEM): –: -: No activity under the screening conditions; details: mean of three values; for zone of inhibition at 1000 µg/mL: Escherichia coli, RCMB010052, 1 mg/mL, read-out: Mean diameter of inhibition zone (Mean ± SEM); for Mean diameter of inhibition zone (Mean ± SEM): 1 mg/mL
A. fumigatus RCMB 002568 [5] = assay: Agar well diffusion, inhibition zone; assay type: cell-based, Aspergillus fumigatus; set-up: key to Mean diameter of inhibition zone (Mean ± SEM): –: -: No activity under the screening conditions; details: mean of three values; for zone of inhibition at 1000 µg/mL: Aspergillus fumigatus, RCMB002568, 1 mg/mL, read-out: Mean diameter of inhibition zone (Mean ± SEM); for Mean diameter of inhibition zone (Mean ± SEM): 1 mg/mL
C. albicans RCMB 005036 = assay: Agar well diffusion, inhibition zone; assay type: cell-based, Candida albicans; set-up: key: –: -: No activity under the screening conditions; details: 1 mg/mL, mean of three values
S. pneumonia RCMB 010010 [6] = assay: Minimum inhibitory concentration, modified agar well diffusion; assay type: cell-based; details: Streptococcus pneumoniae, RCMB010010, mean of three values, read-out: MIC (Mean ± SEM)
B. subtilis RCMB 010067 [7] = assay: as above; assay type: cell-based; details: Bacillus subtilis, RCMB010067, mean of three values, read-out: MIC (Mean ± SEM)
[8] = system: P. aeruginosa RCMB 010043; assay: as above; assay type: cell-based; details: Pseudomonas aeruginosa, RCMB010043, mean of three values, read-out: MIC (Mean ± SEM)
E. coli RCMB 010052 [9] = assay: as above; assay type: cell-based; details: Escherichia coli, RCMB010052, mean of three values, read-out: MIC (Mean ± SEM)
A. fumigatus RCMB 002568 [10] = assay: as above; assay type: cell-based; details: Aspergillus fumigatus, RCMB002568, mean of three values, read-out: MIC (Mean ± SEM)
[11] = system: human liver cancer cell line (HepG-2); assay: MTT anticancer assay; assay type: cell-based; details: HepG2, HePG-2 cancer liver cell line, mean of three values, read-out: IC50 (Mean ± SEM)
[12] = system: (THLE-2) normal liver cell line; assay: Cytotoxic screening on normal liver cells; assay type: cell-based; details: Homo sapiens, mean of three values, read-out: IC50 (Mean ± SEM)
[13] = system: tested bacterial and fungal strains; assay: Antimicrobial screening, summary over all tested strains; assay type: cell-based; details: 1 mg/mL
Text: All bacterial and fungal strains were received from the culture collection of the Regional Center for Mycology and Biotechnology (RCMB), Al-Azhar University, Cairo, Egypt. All target derivatives were screened in-vitro opposite to various kinds of bacteria, Gram-positive bacteria (Streptococcus pneumoniae and Bacillus subtilis) and Gram-negative bacteria (Pseudomonas aeruginosa and Escherichia coli) and for their Antifungal activities against Aspergillus fumigatus and Candida albicans, respectively. Ampicillin and gentamycin were used as standard antibacterial drugs while amphotericin B was used as reference antifungal drug. The diameter of inhibition zone (mm) was measured for the biological activity using the diffusion technique. The promising compounds were further investigated to evaluate their antimicrobial activity expressed in terms of minimum inhibitory concentration (MIC) using the modified agar well diffusion method.
The newly prepared targets were subjected for in-vitro antibacterial screening against Gram-positive bacteria (Streptococcus pneumonia and Bacillus subtilis) and Gram-negative bacteria (Pseudomonas aeruginosa and Escherichia coli). […] The compounds’ solutions of concentrations (1 mg/mL) were evaluated against the different microorganism’s and the inhibition zone (IZ) used diameter in mm for the biologically activity (agar well diffusion method).

CCOC(=O)c1nnc2c(N=NN3C(=O)c4ccccc4C3=O)c(O)nn2c1C [Compound 17, Ethyl 8-[(1,3-dioxo-1,3-dihydro-2H-isoindol-2-yl)diazenyl]-7-hydroxy-4-methyl-pyrazolo[5,1-c][1,2,4]triazine-3-carboxylate]
zone of inhibition at 1000 µg/mL (S. pneumonia RCMB 010010 [1]): 21.9 ± 1.2 mm | zone of inhibition at 1000 µg/mL (B. subtilis RCMB 010067 [2]): 20.2 ± 1.2 mm | zone of inhibition at 1000 µg/mL [3]: 15.5 ± 1.2 mm | zone of inhibition at 1000 µg/mL (E. coli RCMB 010052 [4]): 20.5 ± 1.3 mm | zone of inhibition at 1000 µg/mL (A. fumigatus RCMB 002568 [5]): 16.9 ± 1.2 mm | Mean diameter of inhibition zone (Mean ± SEM) (C. albicans RCMB 005036): – | MIC (S. pneumonia RCMB 010010 [6]): 3.9 ± 0.01 µg/mL (≈ 9.87 µM) | MIC (B. subtilis RCMB 010067 [7]): 3.9 ± 1.38 µg/mL (≈ 9.87 µM) | MIC [8]: 62.5 ± 0.71 µg/mL (≈ 158 µM) | MIC (E. coli RCMB 010052 [9]): 3.9 ± 1.24 µg/mL (≈ 9.87 µM) | MIC (A. fumigatus RCMB 002568 [10]): 15.6 ± 1.05 µg/mL (≈ 39.5 µM) | IC50 [11]: 9.92 ± 1.28 µg/mL (≈ 25.1 µM) | IC50 [12]: 658.13 ± 0.25 µg/mL (≈ 1660 µM) | melting point: > 300 °C

CCOC(=O)C(C#N)=NNN1C(=O)c2ccccc2C1=O [Compound 3, Ethyl 2-cyano-2-(2-(1,3-dioxoisoindolin-2-yl)hydrazono)acetate]
zone of inhibition at 1000 µg/mL (S. pneumonia RCMB 010010 [1]): 18.3 ± 0.7 mm | zone of inhibition at 1000 µg/mL (B. subtilis RCMB 010067 [2]): 17.3 ± 0.6 mm | zone of inhibition at 1000 µg/mL [3]: 15.3 ± 0.7 mm | zone of inhibition at 1000 µg/mL (E. coli RCMB 010052 [4]): 17.1 ± 0.5 mm | Mean diameter of inhibition zone (Mean ± SEM) (A. fumigatus RCMB 002568 [5]): – | Mean diameter of inhibition zone (Mean ± SEM) (C. albicans RCMB 005036): – | IC50 [11]: 12.6 ± 0.13 µg/mL (≈ 44 µM) | IC50 [12]: 716.37 ± 0.1 µg/mL (≈ 2500 µM) | melting point: 128 to 129 °C

CC1(C)S[C@@H]2[C@H](NC(=O)[C@H](N)c3ccccc3)C(=O)N2[C@H]1C(=O)O [Ampicillin, reference compound]
zone of inhibition at 1000 µg/mL (S. pneumonia RCMB 010010 [1]): 23.8 ± 0.71 mm | zone of inhibition at 1000 µg/mL (B. subtilis RCMB 010067 [2]): 26.4 ± 0.5 mm | Mean diameter of inhibition zone (Mean ± SEM) [3]: – | Mean diameter of inhibition zone (Mean ± SEM) (E. coli RCMB 010052 [4]): – | Mean diameter of inhibition zone (Mean ± SEM) (A. fumigatus RCMB 002568 [5]): – | Mean diameter of inhibition zone (Mean ± SEM) (C. albicans RCMB 005036): – | MIC [8]: 3.9 ± 0.15 µg/mL (≈ 11.2 µM) | MIC (E. coli RCMB 010052 [9]): 0.98 ± 1.05 µg/mL (≈ 2.8 µM)

O=C1Cn2nc(O)c(N=NN3C(=O)c4ccccc4C3=O)c2N1 [Compound 5, 2-((6-Hydroxy-2-oxo-2,3-dihydro-1H-imidazo[1,2-b]pyrazol-7-yl)diazenyl)-isoindoline-1,3-dione]
Mean diameter of inhibition zone (Mean ± SEM) (S. pneumonia RCMB 010010 [1]; 1 mg/mL): – | Mean diameter of inhibition zone (Mean ± SEM) (B. subtilis RCMB 010067 [2]; 1 mg/mL): – | Mean diameter of inhibition zone (Mean ± SEM) [3]: – | Mean diameter of inhibition zone (Mean ± SEM) (E. coli RCMB 010052 [4]): – | Mean diameter of inhibition zone (Mean ± SEM) (A. fumigatus RCMB 002568 [5]): – | Mean diameter of inhibition zone (Mean ± SEM) (C. albicans RCMB 005036): – | IC50 [11]: 31.8 ± 1.56 µg/mL (≈ 102 µM) | IC50 [12]: 597.83 ± 0.14 µg/mL (≈ 1910 µM) | antimicrobial activity, overall [13]: no antimicrobial activities | melting point: 157 to 158 °C

N#Cc1nnc2c(N=NN3C(=O)c4ccccc4C3=O)c(O)nn2c1N [Compound 16, 4-Amino-8-[(1,3-dioxo-1,3-dihydro-2H-isoindol-2-yl)diazenyl]-7-hydroxy-pyrazolo[5,1-c][1,2,4]triazine-3-carbonitrile]
zone of inhibition at 1000 µg/mL (S. pneumonia RCMB 010010 [1]): 22.8 ± 0.7 mm | zone of inhibition at 1000 µg/mL (B. subtilis RCMB 010067 [2]): 18.8 ± 1.4 mm | zone of inhibition at 1000 µg/mL [3]: 18.1 ± 0.6 mm | zone of inhibition at 1000 µg/mL (E. coli RCMB 010052 [4]): 23.7 ± 0.7 mm | zone of inhibition at 1000 µg/mL (A. fumigatus RCMB 002568 [5]): 22.9 ± 1.3 mm | Mean diameter of inhibition zone (Mean ± SEM) (C. albicans RCMB 005036): – | MIC (S. pneumonia RCMB 010010 [6]): 3.9 ± 1.24 µg/mL (≈ 11.2 µM) | MIC (B. subtilis RCMB 010067 [7]): 7.81 ± 1.16 µg/mL (≈ 22.4 µM) | MIC [8]: 15.6 ± 1.25 µg/mL (≈ 44.8 µM) | MIC (E. coli RCMB 010052 [9]): 1.95 ± 1.49 µg/mL (≈ 5.58 µM) | MIC (A. fumigatus RCMB 002568 [10]): 3.9 ± 0.39 µg/mL (≈ 11.2 µM) | IC50 [11]: 7.5 ± 0.84 µg/mL (≈ 21.5 µM) | IC50 [12]: 820.58 ± 0.18 µg/mL (≈ 2350 µM) | melting point: 320 °C

CC[C@]1(O)C[C@@H]2CN(CCc3c([nH]c4ccccc34)[C@@](C(=O)OC)(c3cc4c(cc3OC)N(C)[C@H]3[C@@](O)(C(=O)OC)[C@H](OC(C)=O)[C@]5(CC)C=CCN6CC[C@]43[C@@H]65)C2)C1 [Vinblastine, reference compound]
IC50 [11]: 4.63 ± 1.07 µg/mL (≈ 5.71 µM) | IC50 [12]: 2146.1 ± 0.1 µg/mL (≈ 2650 µM)
